According to patent US20220024945A1, “THERAPEUTIC COMPOUNDS AND COMPOSITIONS, AND METHODS OF USE THEREOF” (Genentech, Inc., priority 2017, published 2022):

Key:
[1] = molecular target: isolated recombinant JAK1 kinase domain (Homo sapiens, UniProt P23458); assay: JAK enzyme assay (Caliper LabChip), JAK1 kinase domain; type: biochemical; conditions: ATP 25 μM; 1.5 nM JAK1; Morrison tight binding model
[2] = molecular target: isolated recombinant JAK2 kinase domain (Homo sapiens, UniProt O60674); assay: JAK enzyme assay (Caliper LabChip), JAK2 kinase domain; conditions: ATP 25 μM, 0.2 nM JAK2, Morrison tight binding model
Sequence of isolated recombinant JAK2 kinase domain (O60674 849-1124 limits assumed): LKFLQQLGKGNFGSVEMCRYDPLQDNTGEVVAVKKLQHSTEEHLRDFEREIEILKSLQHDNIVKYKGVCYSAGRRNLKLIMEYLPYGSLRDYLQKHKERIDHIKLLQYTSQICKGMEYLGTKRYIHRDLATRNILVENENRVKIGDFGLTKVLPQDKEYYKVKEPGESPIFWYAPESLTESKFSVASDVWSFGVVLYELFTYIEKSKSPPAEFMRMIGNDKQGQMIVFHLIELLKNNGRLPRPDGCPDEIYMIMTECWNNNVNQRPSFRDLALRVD
Description: JAK Enzyme Assays were Carried Out as Follows:
The activity of the isolated recombinant JAK1 and JAK2 kinase domain was measured by monitoring phosphorylation of a peptide derived from JAK3 ([sequence] fluorescently labeled on the N-terminus with 5-carboxyfluorescein) using the Caliper LabChip® technology (Caliper Life Sciences, Hopkinton, Mass.). […] Reactions were incubated at 22° C. in 384-well polypropylene microtiter plates for 30 minutes and then stopped by addition of 25 μL of an EDTA containing solution (100 mM HEPES buffer (pH 7.2), 0.015% Brij-35, 150 mM EDTA), resulting in a final EDTA concentration of 50 mM. After termination of the kinase reaction, the proportion of phosphorylated product was determined as a fraction of total peptide substrate using the Caliper LabChip® 3000 according to the manufacturer's specifications.

[3] = test system: JAK1-dependent STAT6 phosphorylation downstream of IL-13 stimulation, BEAS-2B cells; assay: JAK1 pathway assay in cell lines: P-STAT6 in BEAS-2B cells + IL13; type: cell-based; conditions: Homo sapiens, BEAS-2B, 1 h, BEAS-2B human bronchial epithelial cells, 1 hr compound preincubation, read-out: P-STAT6 BEAS2B + IL13 IC50
Description: JAK1 Pathway Assay in Cell Lines was Carried Out as Follows:
Inhibitor potency (EC50) was determined in cell-based assays designed to measure JAK1 dependent STAT phosphorylation. As noted above, inhibition of IL-4, IL-13, and IL-9 signaling by blocking the Jak/Stat signaling pathway can alleviate asthmatic symptoms in pre-clinical lung inflammation models (Mathew et al., 2001, J Exp Med 193(9): 1087-1096; Kudlacz et. al., 2008, Eur J. Pharmacol 582(1-3): 154-161).
In one assay approach, TF-1 human erythroleukemia cells obtained from the American Type Culture Collection (ATCC; Manassas, Va.) were used to measure JAK1-dependent STAT6 phosphorylation downstream of IL-13 stimulation. Prior to use in the assays, TF-1 cells were starved of GM-CSF overnight in OptiMEM medium (Life Technologies, Grand Island, N.Y.) supplemented with 0.5% charcoal/dextran stripped fetal bovine serum (FBS), 0.1 mM non-essential amino acids (NEAA), and 1 mM sodium pyruvate. The assays were run in 384-well plates in serum-free OptiMEM medium using 300,000 cells per well. In a second assay approach, BEAS-2B human bronchial epithelial cells obtained from ATCC were plated at 100,000 cells per well of a 96-well plate one day prior to the experiment. The BEAS-2B assay was run in complete growth medium (bronchial epithelial basal medium plus bulletkit; Lonza; Basel, Switzerland).
Test compounds were serially diluted 1:2 in DMSO and then diluted 1:50 in medium just before use. Diluted compounds were added to the cells, for a final DMSO concentration of 0.2%, and incubated for 30 m (for the TF-1 assay) or 1 hr (for the BEAS-2B assay) at 37° C. Then, cells were stimulated with human recombinant cytokine at their respective EC90 concentrations, as previously determined for each individual lot. Cells were stimulated with […] (R&D Systems, Minneapolis, Minn.) for 15 m/at 37° C. The TF-1 cell reactions were stopped by the direct addition of 10× lysis buffer (Cell Signaling Technologies, Danvers, Mass.), whereas the BEAS-2B cell incubations were halted by the removal of medium and addition of 1× lysis buffer. The resultant samples were frozen in the plates at −80° C. Compound mediated inhibition of STAT6 phosphorylation was measured in the cell lysates using MesoScale Discovery (MSD) technology (Gaithersburg, Md.). EC50 values were determined as the concentration of compound required for 50% inhibition of STAT phosphorylation relative to that measured for the DMSO control.

Sequence of isolated recombinant JAK1 kinase domain (P23458 875-1153 limits assumed): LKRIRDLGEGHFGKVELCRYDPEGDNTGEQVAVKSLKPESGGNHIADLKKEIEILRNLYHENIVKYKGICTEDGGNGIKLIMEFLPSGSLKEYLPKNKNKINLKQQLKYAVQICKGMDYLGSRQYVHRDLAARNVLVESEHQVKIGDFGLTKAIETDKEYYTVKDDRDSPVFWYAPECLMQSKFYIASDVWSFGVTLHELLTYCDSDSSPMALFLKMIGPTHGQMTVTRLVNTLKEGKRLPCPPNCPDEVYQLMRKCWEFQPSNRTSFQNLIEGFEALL

Ki [1] [nM] | Ki [2] [nM] | Compound | IC50 [3] [nM]
0.21 | 0.52 | CN(C)C(=O)Cn1cc(NC(=O)c2cnn3cccnc23)c(-c2cc(SC(F)F)ccc2OC(F)F)n1 [Example 33, N-[3-[2-(difluoromethoxy)-5-(difluoromethylsulfanyl)phenyl]-1-[2-(dimethylamino)-2-oxo-ethyl]pyrazol-4-yl]pyrazolo[1,5-a]pyrimidine-3-carboxamide] | 10
1.02 | 0.39 | CC(=O)N1CCC(Sc2ccc(OC(F)F)c(-c3n[nH]cc3NC(=O)c3cnn4cccnc34)c2)CC1 [Example 34, N-[3-[5-[(1-acetyl-4-piperidyl)sulfanyl]-2-(difluoromethoxy)phenyl]-1H-pyrazol-4-yl]pyrazolo[1,5-a]pyrimidine-3-carboxamide] | 251
1.14 | 0.9 | O=C(Nc1cn(C2CN(C3COC3)C2)nc1-c1cc(SC2COC2)ccc1OC(F)F)c1cnn2cccnc12 [Example 35, N-[3-[2-(difluoromethoxy)-5-(oxetan-3-ylsulfanyl)phenyl]-1-[1-(oxetan-3-yl)azetidin-3-yl]pyrazol-4-yl]pyrazolo[1,5-a]pyrimidine-3-carboxamide] | 42
0.34 | 0.72 | O=C(Nc1cn(CC(=O)N2CCC(N3CCOCC3)CC2)nc1-c1cc(SC(F)F)ccc1OC(F)F)c1cnn2cccnc12 [Example 42, N-[3-[2-(difluoromethoxy)-5-(difluoromethylsulfanyl)phenyl]-1-[2-(4-morpholino-1-piperidyl)-2-oxo-ethyl]pyrazol-4-yl]pyrazolo[1,5-a]pyrimidine-3-carboxamide] | 23
0.32 | 0.15 | COC(=O)CSc1ccc(OC(F)F)c(-c2n[nH]cc2NC(=O)c2cnn3cccnc23)c1 [Example 43, methyl 2-[4-(difluoromethoxy)-3-[4-(pyrazolo[1,5-a]pyrimidine-3-carbonylamino)-1H-pyrazol-3-yl]phenyl]sulfanylacetate] | 37
0.17 | 0.24 | CSc1ccc(OC(F)F)c(-c2nn(CC(=O)N(C)C)cc2NC(=O)c2cnn3cccnc23)c1 [Example 44] | 10
0.21 | 0.21 | CNC(=O)Cn1cc(NC(=O)c2cnn3cccnc23)c(-c2cc(SC)ccc2OC(F)F)n1 [Example 45, N-[3-[2-(difluoromethoxy)-5-methylsulfanyl-phenyl]-1-[2-(methylamino)-2-oxo-ethyl]pyrazol-4-yl]pyrazolo[1,5-a]pyrimidine-3-carboxamide] | 8
1.24 | 1.28 | C[C@H](O)Cn1cc(Sc2ccc(OC(F)F)c(-c3nn(CC(=O)N(C)C)cc3NC(=O)c3cnn4cccnc34)c2)cn1 [Example 46, (S)-N-(3-(2-(difluoromethoxy)-5-((1-(2-hydroxypropyl)-1H-pyrazol-4-yl)thio)phenyl)-1-(2-(dimethylamino)-2-oxoethyl)-1H-pyrazol-4-yl)pyrazolo[1,5-a]pyrimidine-3-carboxamide] | 223
0.18 | 0.78 | CN(C)C(=O)Cn1cc(NC(=O)c2cnn3cccnc23)c(-c2cc(SCC(F)(F)F)ccc2OC(F)F)n1 [Example 47, N-(3-(2-(difluoromethoxy)-5-((2,2,2-trifluoroethyl)thio)phenyl)-1-(2-(dimethylamino)-2-oxoethyl)-1H-pyrazol-4-yl)pyrazolo[1,5-a]pyrimidine-3-carboxamide] | 15
1.35 | 4.44 | CN(C)C(=O)Cn1cc(NC(=O)c2cnn3cccnc23)c(-c2cc([S+](C)[O-])ccc2OC(F)F)n1 (stereo not drawn) [Example 48, N-(3-(2-(difluoromethoxy)-5-(methylsulfinyl)phenyl)-1-(2-(dimethylamino)-2-oxoethyl)-1H-pyrazol-4-yl)pyrazolo[1,5-a]pyrimidine-3-carboxamide] | 518
0.45 | 0.79 | CN(C)C(=O)Cn1cc(NC(=O)c2cnn3cccnc23)c(-c2cc(S(C)(=O)=O)ccc2OC(F)F)n1 [Example 49, N-(3-(2-(difluoromethoxy)-5-(methylsulfonyl)phenyl)-1-(2-(dimethylamino)-2-oxoethyl)-1H-pyrazol-4-yl)pyrazolo[1,5-a]pyrimidine-3-carboxamide] | 214
0.3 | 0.56 | CN(C)C(=O)Cn1cc(NC(=O)c2cnn3cccnc23)c(-c2cc(S(=O)(=O)C(F)F)ccc2OC(F)F)n1 [Example 50, N-(3-(2-(difluoromethoxy)-5-((difluoromethyl)sulfonyl)phenyl)-1-(2-(dimethylamino)-2-oxoethyl)-1H-pyrazol-4-yl)pyrazolo[1,5-a]pyrimidine-3-carboxamide] | 38
